Test results as given in ChEMBL document CHEMBL1148110, “New lanostanoids from the fungus Ganoderma concinna” (J Nat Prod, 2002).
Active and inactive are the calls of the source. No cut-off for these calls is given here.

Assays:
HL-60 [1] = test: Induction of apoptosis in human HL60 cells assessed as morphological changes at 30 uM after 24 hrs by Hoechst 33258 staining; type: functional, cell-based
HL-60 [2] = test: Induction of apoptosis in human HL60 cells assessed as intranucleosomal hydrolysis of chromatin at 30 uM after 24 hrs by agarose gel electrophoresis; type: functional, cell-based
HL-60 [3] = test: Cytotoxicity against human HL60 cells after 24 hrs by MTT assay; type: functional, cell-based; conditions: HL-60, 24 h
HL-60 [4] = test: Induction of apoptosis in human HL60 cells assessed as chromatin condensation and fragmentation at 30 uM after 24 hrs by quantitative fluorescent microscopy

| Compound | Activity (HL-60 [1]) | Activity (HL-60 [2]) | IC50 (HL-60 [3]) [µM] | Activity (HL-60 [4]) [%] |
| --- | --- | --- | --- | --- |
| C/C(=C/CC[C@@H](C)[C@H]1C[C@H](O)[C@@]2(C)C3=CC[C@H]4C(C)(C)C(=O)CC[C@]4(C)C3=CC[C@]12C)CO | Active | Active | 15.7 | 62 |
| CC(=O)[C@H]1CC(=O)[C@@]2(C)[C@]34O[C@@]3(C(=O)C[C@]12C)[C@@]1(C)CCC(=O)C(C)(C)[C@@H]1CC4=O |  | Active |  | 12 |
| C/C(C=O)=C/CC[C@@H](C)[C@H]1CC[C@@]2(C)C3=CC[C@H]4C(C)(C)[C@@H](O)CC[C@]4(C)C3=CC[C@]12C |  | Active |  | 15 |
